Patent US11945822B2, “Pyrazolo-triazine and/or pyrazolo-pxrimidine derivatives as selective inhibitor of cyclin dependent kinase” (QURIENT CO., LTD., priority 2018, dated 2024)

Each compound was assayed against T1, CDK5/p25 (Homo sapiens, UniProt Q00535) (assay: Enzymatic assay for CDK5 (FRET based LANCE Ultra kinase assay)). Details: read-out: CDK5 enzymatic activity (IC50 activity range).
T1 construct: purchased Invitrogen PR8543B
Assay type: biochemical
Summary of the method: (§1)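 TR-FRET (LANCE Ultra) kinase assay at ATP Km, ULight-MBP peptide substrate (68 nM), 8-dose 4-fold compound series in DMSO. Enzymes: […]; 60 min at 23° C., stopped with EDTA plus Eu-anti-phospho-MBP antibody, read 665/615 nm after 60 min.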

T1 sequence (Q00535 whole entry): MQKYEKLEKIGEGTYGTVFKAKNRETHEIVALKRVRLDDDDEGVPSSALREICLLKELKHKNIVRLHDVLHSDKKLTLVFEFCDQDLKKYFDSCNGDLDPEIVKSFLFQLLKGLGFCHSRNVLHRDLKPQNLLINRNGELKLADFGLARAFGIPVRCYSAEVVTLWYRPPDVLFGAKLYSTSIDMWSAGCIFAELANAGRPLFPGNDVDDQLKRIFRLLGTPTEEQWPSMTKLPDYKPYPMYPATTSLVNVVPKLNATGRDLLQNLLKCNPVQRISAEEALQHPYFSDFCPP
T1 sequence (Q15078 99-307 partner limits assumed): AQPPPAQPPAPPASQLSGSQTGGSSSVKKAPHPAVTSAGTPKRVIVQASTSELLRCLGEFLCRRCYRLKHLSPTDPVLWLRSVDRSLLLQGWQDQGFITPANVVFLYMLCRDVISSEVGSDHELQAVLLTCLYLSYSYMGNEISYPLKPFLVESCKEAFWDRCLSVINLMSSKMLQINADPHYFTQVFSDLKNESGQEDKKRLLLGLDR

IC50 [nM]	SMILES
> 1000	CC(C)c1cnn2c(NCc3c(Cl)cccc3-c3ncc(C(C)(C)O)s3)nc(N3CCC(N)CC3)nc12 [Compound 249]
> 1000	CC(C)c1cnn2c(NCc3c(Cl)cccc3N3CC[C@H](C(C)(C)O)C3)nc(N3CCC(N)CC3)nc12 [Compound 250]
> 1000	CC(C)c1cnn2c(NCc3c(Cl)cccc3-n3ccc(C(C)(C)O)n3)nc(N3CCC(F)(CN)CC3)nc12 [Compound 252]

What follows are compounds tested on H460 (assay: Cellular H460 viability assay (CellTiter-Glo, 72 hours)). Details: Homo sapiens, NCI-H460.
Assay type: cell-based
Summary of the method: (§2)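 Steps: seed cells at per-line density; add compound, DMSO vehicle kept under 0.1% final; incubate 72 h, 37 °C, 5% CO2; lyse with CellTiter-Glo and read luminescence; run in duplicate.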

IC50 [nM]	SMILES
< 1000	CC(C)c1cnn2c(NCc3c(Cl)cccc3-c3ncc(C(C)(C)O)s3)nc(N3CCC(N)CC3)nc12 [Compound 249]
1000 to 10000	CC(C)c1cnn2c(NCc3c(Cl)cccc3N3CC[C@H](C(C)(C)O)C3)nc(N3CCC(N)CC3)nc12 [Compound 250]
< 1000	CC(C)c1cnn2c(NCc3c(Cl)cccc3-n3ccc(C(C)(C)O)n3)nc(N3CCC(F)(CN)CC3)nc12 [Compound 252]

The compounds below were run against T2, CDK2/Cyclin A (Homo sapiens, UniProt P24941) (assay: Enzymatic assay for CDK2 (FRET based LANCE Ultra kinase assay)). Details: read-out: CDK2 enzymatic activity (IC50 activity range).
T2 construct: purchased Invitrogen PV6290
Assay type: biochemical
Summary of the method: as §1

IC50 [nM]	SMILES
> 1000	CC(C)c1cnn2c(NCc3c(Cl)cccc3-c3ncc(C(C)(C)O)s3)nc(N3CCC(N)CC3)nc12 [Compound 249]
> 1000	CC(C)c1cnn2c(NCc3c(Cl)cccc3N3CC[C@H](C(C)(C)O)C3)nc(N3CCC(N)CC3)nc12 [Compound 250]
> 1000	CC(C)c1cnn2c(NCc3c(Cl)cccc3-n3ccc(C(C)(C)O)n3)nc(N3CCC(F)(CN)CC3)nc12 [Compound 252]

What follows are compounds tested on MV4-11 (assay: Cellular MV4-11 viability assay (CellTiter-Glo, 72 hours)). Details: Homo sapiens.
Assay type: cell-based
Summary of the method: as §2

IC50 [nM]	SMILES
< 1000	CC(C)c1cnn2c(NCc3c(Cl)cccc3-c3ncc(C(C)(C)O)s3)nc(N3CCC(N)CC3)nc12 [Compound 249]
1000 to 10000	CC(C)c1cnn2c(NCc3c(Cl)cccc3N3CC[C@H](C(C)(C)O)C3)nc(N3CCC(N)CC3)nc12 [Compound 250]
< 1000	CC(C)c1cnn2c(NCc3c(Cl)cccc3-n3ccc(C(C)(C)O)n3)nc(N3CCC(F)(CN)CC3)nc12 [Compound 252]

Each compound was assayed against T3, CDK7/Cyclin H/MNAT1 (Homo sapiens, UniProt P50613) (assay: Enzymatic assay for CDK7 (FRET based LANCE Ultra kinase assay)). Details: CDK1/CDK7.
T3 construct: purchased Invitrogen PR6749B
Assay type: biochemical
Summary of the method: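 LANCE Ultra TR-FRET kinase assay using a ULight-labeled peptide substrate and a Eu-labeled anti-phospho antibody, with ATP at its Km. Purified CDK/cyclin complex was added to compound after brief centrifugation.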

T3 sequence (P50613 whole entry): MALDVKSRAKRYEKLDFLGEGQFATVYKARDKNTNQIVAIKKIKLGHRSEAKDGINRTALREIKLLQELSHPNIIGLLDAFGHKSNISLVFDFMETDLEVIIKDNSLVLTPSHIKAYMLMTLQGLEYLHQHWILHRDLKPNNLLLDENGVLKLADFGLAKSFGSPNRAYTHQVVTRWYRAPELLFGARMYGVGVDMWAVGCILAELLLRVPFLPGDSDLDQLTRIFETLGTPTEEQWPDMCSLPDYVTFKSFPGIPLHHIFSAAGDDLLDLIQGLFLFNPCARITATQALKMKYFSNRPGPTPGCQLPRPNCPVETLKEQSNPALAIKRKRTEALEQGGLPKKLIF
T3 sequence (P51946 whole entry partner): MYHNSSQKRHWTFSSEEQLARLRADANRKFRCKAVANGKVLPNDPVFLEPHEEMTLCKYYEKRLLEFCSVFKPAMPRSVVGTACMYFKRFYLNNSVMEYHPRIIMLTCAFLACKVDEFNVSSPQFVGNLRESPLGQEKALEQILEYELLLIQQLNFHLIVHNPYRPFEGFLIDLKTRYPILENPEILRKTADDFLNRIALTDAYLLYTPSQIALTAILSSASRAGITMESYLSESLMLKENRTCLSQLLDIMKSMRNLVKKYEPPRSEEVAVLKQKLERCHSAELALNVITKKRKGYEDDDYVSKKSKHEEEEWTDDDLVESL
T3 sequence (P51948 whole entry partner): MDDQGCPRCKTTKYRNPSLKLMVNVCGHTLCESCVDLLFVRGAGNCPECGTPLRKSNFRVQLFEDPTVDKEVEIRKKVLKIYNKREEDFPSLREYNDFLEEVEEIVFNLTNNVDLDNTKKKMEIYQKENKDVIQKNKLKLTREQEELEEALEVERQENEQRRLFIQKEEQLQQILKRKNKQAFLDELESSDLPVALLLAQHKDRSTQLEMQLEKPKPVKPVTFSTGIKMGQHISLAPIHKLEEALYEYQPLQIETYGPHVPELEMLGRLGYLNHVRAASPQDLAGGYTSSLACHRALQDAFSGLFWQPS

CDK1/CDK7: Selectivity of CDK7 inhibition over CDK1 inhibition	SMILES
A (A=greater than 200 fold)	CC(C)c1cnn2c(NCc3c(Cl)cccc3-c3ncc(C(C)(C)O)s3)nc(N3CCC(N)CC3)nc12 [Compound 249]
A (A=greater than 200 fold)	CC(C)c1cnn2c(NCc3c(Cl)cccc3N3CC[C@H](C(C)(C)O)C3)nc(N3CCC(N)CC3)nc12 [Compound 250]
A (A=greater than 200 fold)	CC(C)c1cnn2c(NCc3c(Cl)cccc3-n3ccc(C(C)(C)O)n3)nc(N3CCC(F)(CN)CC3)nc12 [Compound 252]

Same assay, conditions: CDK2/CDK7

CDK2/CDK7: Selectivity of CDK7 inhibition over CDK2 inhibition	SMILES
A (A=greater than 200 fold)	CC(C)c1cnn2c(NCc3c(Cl)cccc3-c3ncc(C(C)(C)O)s3)nc(N3CCC(N)CC3)nc12 [Compound 249]
A (A=greater than 200 fold)	CC(C)c1cnn2c(NCc3c(Cl)cccc3N3CC[C@H](C(C)(C)O)C3)nc(N3CCC(N)CC3)nc12 [Compound 250]
A (A=greater than 200 fold)	CC(C)c1cnn2c(NCc3c(Cl)cccc3-n3ccc(C(C)(C)O)n3)nc(N3CCC(F)(CN)CC3)nc12 [Compound 252]

Same assay, conditions: CDK5/CDK7

CDK5/CDK7: Selectivity of CDK7 inhibition over CDK5 inhibition	SMILES
A (A=greater than 200 fold)	CC(C)c1cnn2c(NCc3c(Cl)cccc3-c3ncc(C(C)(C)O)s3)nc(N3CCC(N)CC3)nc12 [Compound 249]
A (A=greater than 200 fold)	CC(C)c1cnn2c(NCc3c(Cl)cccc3-n3ccc(C(C)(C)O)n3)nc(N3CCC(F)(CN)CC3)nc12 [Compound 252]

SMILES	CDK5/CDK7: Selectivity of CDK7 inhibition over CDK5 inhibition
CC(C)c1cnn2c(NCc3c(Cl)cccc3N3CC[C@H](C(C)(C)O)C3)nc(N3CCC(N)CC3)nc12 [Compound 250]	B (B=less than 200 fold, but greater than 20 fold)

Same assay, conditions: read-out: CDK7 enzymatic activity (IC50 activity range)

IC50 [nM]	SMILES
< 100	CC(C)c1cnn2c(NCc3c(Cl)cccc3-c3ncc(C(C)(C)O)s3)nc(N3CCC(N)CC3)nc12 [Compound 249]
< 100	CC(C)c1cnn2c(NCc3c(Cl)cccc3N3CC[C@H](C(C)(C)O)C3)nc(N3CCC(N)CC3)nc12 [Compound 250]
< 100	CC(C)c1cnn2c(NCc3c(Cl)cccc3-n3ccc(C(C)(C)O)n3)nc(N3CCC(F)(CN)CC3)nc12 [Compound 252]

Each compound was assayed on A2780 (assay: Cellular A2780 viability assay (CellTiter-Glo, 72 hours)). Details: Homo sapiens.
Assay type: cell-based
Description: Human T-cell acute lymphoblastic leukemia cell line, MOLT-4 (ATCC, Cat #CRL-1582), Human multiple myeloma cell line, RPMI-8226 (Invitrogen, Cat #22400-089) and MM.1S (ATCC, Cat #CRL-2974), NSCLC (Non-small cell lung cancer) cell line H460 (ATCC, Cat #HTB-177), Human colon colorectal carcinoma cell line HCT116 (ATCC, Cat #CCL-247), Human acute monocytic leukemia cell line MV4-11 (ATCC, Cat #CRL-9591), OVCAR-3 (ATCC, Cat #HTB-161) and A2780 (ECACC, Cat #93112519) were obtained from ATCC. Cells were grown in RPMI-1640 media (Invitrogen, Cat #22400-089) supplemented with 10% FBS (Invitrogen, Cat #10099141) and 1% penicillin/streptomycin (Invitrogen, Cat #15070063) and cultured at 37° C., 5% CO2 in a humidified chamber. All cell lines were routinely tested for mycoplasma.
The effect of the CDK7 inhibitor to inhibit the growth of target cancer cells was evaluated through the 72 hours time period of viability assay. Briefly, the candidate cell line ware plated in 96 well plate at the following density of cells respectively. 1×10^4 cells/well for MOLT-4, RPMI-8226, MV4-11 and MM.1S, 5×10^3 for H460, HCT116 and OVCAR-3 and IX 10^3 for A2780. After 24 hours, the cells were treated with various concentrations of the compound (ranging from 0.0015 uM to 10 uM). DMSO solvent without compound served as a control and final DMSO concentration less than 0.1%. After 72 hours of incubation at 37° C., 5% CO2 incubator, cells were analyzed for the viability using the CellTiter-Glo Luminescent Cell Viability Assay (Promega, Cat #G7570). All viability assays were performed in duplicate and Luminescence was read using an Envision (Perkin Elmer, USA). Data was analyzed using XLfit software.

IC50 [nM]	SMILES
≤ 1000	CC(C)c1cnn2c(NCc3c(Cl)cccc3-c3ncc(C(C)(C)O)s3)nc(N3CCC(N)CC3)nc12 [Compound 249]
1000 to 10000	CC(C)c1cnn2c(NCc3c(Cl)cccc3N3CC[C@H](C(C)(C)O)C3)nc(N3CCC(N)CC3)nc12 [Compound 250]
≤ 1000	CC(C)c1cnn2c(NCc3c(Cl)cccc3-n3ccc(C(C)(C)O)n3)nc(N3CCC(F)(CN)CC3)nc12 [Compound 252]

The compounds below were run against T4, CDK1/Cyclin B (Homo sapiens, UniProt P06493) (assay: Enzymatic assay for CDK1 (FRET based LANCE Ultra kinase assay)). Details: read-out: CDK1 enzymatic activity (IC50 activity range).
T4 construct: purchased Invitrogen PR4768C
Assay type: biochemical
Summary of the method: as §1

T4 sequence (P06493 whole entry): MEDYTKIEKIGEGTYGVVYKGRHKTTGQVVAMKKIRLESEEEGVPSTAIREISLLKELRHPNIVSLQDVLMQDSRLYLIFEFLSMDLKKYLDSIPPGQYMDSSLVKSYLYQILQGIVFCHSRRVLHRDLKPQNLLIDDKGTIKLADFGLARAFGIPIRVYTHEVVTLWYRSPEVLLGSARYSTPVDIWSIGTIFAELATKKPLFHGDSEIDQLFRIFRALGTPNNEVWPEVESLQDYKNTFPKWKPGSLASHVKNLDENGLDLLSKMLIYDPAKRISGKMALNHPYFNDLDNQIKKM
T4 sequence (P14635 whole entry partner): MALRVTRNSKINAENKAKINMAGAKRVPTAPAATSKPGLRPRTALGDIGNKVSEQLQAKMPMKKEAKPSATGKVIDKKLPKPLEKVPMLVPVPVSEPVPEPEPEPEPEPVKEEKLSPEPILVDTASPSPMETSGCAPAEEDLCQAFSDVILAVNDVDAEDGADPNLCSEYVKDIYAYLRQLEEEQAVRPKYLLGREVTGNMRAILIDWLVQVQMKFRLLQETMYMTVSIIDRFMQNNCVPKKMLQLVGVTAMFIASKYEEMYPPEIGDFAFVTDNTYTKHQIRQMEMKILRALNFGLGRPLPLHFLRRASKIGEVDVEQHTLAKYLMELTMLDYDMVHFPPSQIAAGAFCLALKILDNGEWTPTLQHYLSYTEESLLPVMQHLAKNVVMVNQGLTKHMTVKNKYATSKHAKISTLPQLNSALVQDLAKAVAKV

IC50 [nM]	SMILES
> 1000	CC(C)c1cnn2c(NCc3c(Cl)cccc3-c3ncc(C(C)(C)O)s3)nc(N3CCC(N)CC3)nc12 [Compound 249]
> 1000	CC(C)c1cnn2c(NCc3c(Cl)cccc3N3CC[C@H](C(C)(C)O)C3)nc(N3CCC(N)CC3)nc12 [Compound 250]
> 1000	CC(C)c1cnn2c(NCc3c(Cl)cccc3-n3ccc(C(C)(C)O)n3)nc(N3CCC(F)(CN)CC3)nc12 [Compound 252]
